# Values quoted from earlier work as cited in article PMC5278571, “Optimal doses of caspofungin during continuous venovenous hemodiafiltration in critically ill patients” (Critical Care, 2017).
# Key:
# Conditions in all cases: murine model of disseminated candidiasis; cited from earlier work
# C. parapsilosis = tested on: C. parapsilosis
# Procedure: (§1) Taking into account a MIC of 0.1 mg/L [4], and using the target pharmacokinetics/pharmacodynamics (PK/PD) described for micafungin, we would have reac ...
# Candida albicans = tested on: Candida albicans
# Procedure: as §1
# Candida glabrata = tested on: Candida glabrata
# Procedure: as §1
substance,measurement,setting,value
micafungin,AUC/MIC associated with 1 log kill/24 h,C. parapsilosis,1185
same,AUC/MIC associated with 1 log kill/24 h,Candida albicans,865
same,AUC/MIC associated with 1 log kill/24 h,Candida glabrata,450
